The values that follow come from publication PMC9221411, “Molecular Detection of Venous Thrombosis in Mouse Models Using SPECT/CT” (Biomolecules, 2022).

This assay concerns the target T1, human thrombi (Homo sapiens, UniProt P02671+P02675+P02679).
T1 construct: Human plasma was allowed to clot for 90 min at 37 °C; from tissue; host or cells: citrated plasma of healthy human volunteers, clotted with CaCl2 and tissue factor
T1 sequence (P02671 36-629 limits assumed): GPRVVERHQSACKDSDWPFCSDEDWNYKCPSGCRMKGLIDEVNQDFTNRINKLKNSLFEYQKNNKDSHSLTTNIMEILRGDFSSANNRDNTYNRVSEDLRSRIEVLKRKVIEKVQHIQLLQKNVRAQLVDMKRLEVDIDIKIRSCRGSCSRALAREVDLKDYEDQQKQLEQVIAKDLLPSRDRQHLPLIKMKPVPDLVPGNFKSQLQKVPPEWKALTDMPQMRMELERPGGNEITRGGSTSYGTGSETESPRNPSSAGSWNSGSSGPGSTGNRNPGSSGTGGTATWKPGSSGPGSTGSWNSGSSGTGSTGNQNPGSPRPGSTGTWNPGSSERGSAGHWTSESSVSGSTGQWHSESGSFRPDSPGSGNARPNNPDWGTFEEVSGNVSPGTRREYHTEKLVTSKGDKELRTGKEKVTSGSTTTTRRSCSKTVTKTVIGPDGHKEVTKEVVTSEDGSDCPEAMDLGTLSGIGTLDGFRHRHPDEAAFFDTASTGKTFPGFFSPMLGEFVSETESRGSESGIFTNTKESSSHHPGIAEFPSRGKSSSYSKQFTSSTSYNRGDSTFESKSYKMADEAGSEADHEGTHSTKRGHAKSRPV
T1 sequence (P02675 45-491 limits assumed): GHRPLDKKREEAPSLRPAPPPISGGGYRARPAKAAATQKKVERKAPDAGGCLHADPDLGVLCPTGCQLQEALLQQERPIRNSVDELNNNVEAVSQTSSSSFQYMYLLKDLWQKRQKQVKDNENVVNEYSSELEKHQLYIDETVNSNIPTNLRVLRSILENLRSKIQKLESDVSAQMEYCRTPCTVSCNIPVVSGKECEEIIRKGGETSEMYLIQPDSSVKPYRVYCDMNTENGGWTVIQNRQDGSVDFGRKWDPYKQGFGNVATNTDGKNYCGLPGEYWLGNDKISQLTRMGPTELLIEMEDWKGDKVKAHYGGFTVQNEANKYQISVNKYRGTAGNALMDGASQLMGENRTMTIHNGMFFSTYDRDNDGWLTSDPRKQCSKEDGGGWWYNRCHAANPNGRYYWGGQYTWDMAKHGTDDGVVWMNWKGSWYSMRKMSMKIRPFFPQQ
T1 sequence (P02679 27-437 isoform P02679-2 limits assumed): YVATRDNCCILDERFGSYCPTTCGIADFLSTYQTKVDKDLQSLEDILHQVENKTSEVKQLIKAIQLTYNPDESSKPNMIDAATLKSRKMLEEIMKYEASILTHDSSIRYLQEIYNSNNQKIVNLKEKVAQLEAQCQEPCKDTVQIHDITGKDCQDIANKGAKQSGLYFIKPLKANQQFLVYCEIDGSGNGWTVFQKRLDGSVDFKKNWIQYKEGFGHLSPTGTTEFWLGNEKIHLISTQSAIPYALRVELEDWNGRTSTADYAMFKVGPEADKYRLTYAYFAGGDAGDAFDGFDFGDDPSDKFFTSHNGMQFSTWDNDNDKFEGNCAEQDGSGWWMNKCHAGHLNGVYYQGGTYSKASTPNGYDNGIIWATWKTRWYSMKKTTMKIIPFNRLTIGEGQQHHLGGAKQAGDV
Description: In vitro probe depletion: incorporation of rhodamine-labelled probes into human plasma thrombi (OD570 of supernatant). The class given is binding. The settings on record: mean. The protocol: Human blood was collected from healthy volunteers by venipuncture using a vacutainer tube containing trisodium citrate after signing informed consent (Helsinki declaration). […] At the indicated time points, the OD570 of the supernatant was measured. Mouse blood was collected through a tail vein puncture, and plasma from 6 mice was pooled. Human and mouse thrombi were allowed to form as described above and subsequently incubated with 100 μ L or 16 ng/ μ L ^111 In-A16 or ^111 In-control-A16. After 30, 60 and 180 min, the thrombi were washed twice with 1 mL PBS, and the amount of tracer uptake in the thrombi was calculated using gamma counting (Wallac Wizard, Turku, Finland). Data were expressed as the percentage of tracer uptake in the thrombi to the total amount of tracer added.
LisB-A16 was compared with bi- α 2-AP-CA. Human plasma was allowed to clot for 90 min at 37 °C, after which a 3 μ M probe was added. The decrease in probe left in the solution was measured by colourimetry and represented probe incorporation into the human thrombi (Figure 2A). […]
Figure 2 In vitro probe depletion. […] OD (570 nm) in solution was measured after 1, 2, 3 and 4 h as a measure of probe incorporation in thrombi. […]
OD (570 nm) in soluti on was measured after 1, 2, 3 and 4 hours , as a measure of probe […]

“Ac-GNQEQVSPLTLLK1-K(LisB)K-NH 2 [LisB-A16, red fluorescent A16 probe conjugated with Lissamine rhodamine-B]”: the “absorption at 570 nm of probe left in solution (probe incorporation into human thrombi)” value (3 μM probe added to human plasma thrombi formed 90 min at 37 °C (14 mM CaCl2, 0.6 nM TF), OD570 of supernatant measured after 1, 2, 3 and 4 h, n = 4, lower = more incorporation) is on record as 53%. Besides, the “remaining probe in solution” value (15 μM probe added to human plasma thrombi formed 90 min at 37 °C, OD570 of supernatant after 1, 2, 3 and 4 h, n = 4 (Figure S2)) was determined as 61%.
